Consider 16 compounds from patent US4695569A, “Bicyclic heterocyclyl containing N-(bicyclic heterocyclyl)-4-piperidinamines” (Janssen Pharmaceutica N.V., priority 1987, dated 1987).

Structures can show the parent of a compound that is named as a salt.

Test [1] has as its system compound 48/80-induced lethality. Description: Protection of rats from compound 48/80-induced lethality. The test is classed as in vivo, rat (male, inbred Wistar strain). Conditions: Rattus norvegicus, 4 h, read-out: Compound 48/80 lethality test in rats-ED50. As to the method:
Protection of rats from compound 48/80-induced lethality
The protection from compound 48/80-induced lethal circulatory collapse appears to be a simple way of evaluating quantitatively the antihistaminic activity of test compounds. Male rats of an inbred Wistar strain, weighing 240-260 g were used in the experiment. After overnight starvation the rats were transferred to conditioned laboratories (temp.=21±1° C., relative humidity=65±5%).
The rats were treated subcutaneously or orally with a test compound or with the solvent (NaCl solution, 0.9%). […] Survival after 4 hours is therefore considered to be a safe criterion of a protective effect of drug administration.
The ED50 -values of the compounds of formula (I) are listed in the first column of table 1. Said ED50 -values are the values in mg/kg body weight at which the tested compounds protect 50% of the tested animals against compound 48/80-induced lethality.

The subject of test [2] is serotonin. Description: Antagonistic activity on the effects of serotonin in the gastric lesion test (lesions induced by compound 48/80). Conditions: Rattus norvegicus, po, 4 h; read-out: gastric lesion test ED50 (distension of the stomach and lesions in the glandular area completely absent in 50% of rats). The test is classed as in vivo, rat (male, Wistar inbred strain). The text has this: The compounds of formula (I) and the pharmaceutically acceptable acid addition salts thereof are also potent serotonin-antagonists. The potency of the subject compounds as serotonin-antagonists is clearly evidenced by the results obtained in the following tests wherein the antagonistic activity of the subject compounds on the effect of serotonin is examined.
Antagonistic activity on the effects of serotonin in the gastric lesion test
Comound 48/80 (a mixture of oligomers obtained by condensation of 4-methoxy-N-methylbenzeneethanamine and formaldehyde) is a potent releaser of vasoactive amines from endogenous stores such as, for example, histamine and serotonin. […] The shock, followed by dead, can be avoided if the rats are pretreated with a classical H 1 antagonist.
Male rats of a Wistar inbred strain, weighing 220-250 g, were starved overnight, water being available ad libitum. The test compounds were administered orally as a solution or as a suspension in aqueous medium. A control rat and a "blank" rat received the test compound. One hour later 5-[4-(diphenylmethyl)-1-piperazinylmethyl]-1-methyl-1H-benzimidazole-2-methanol was administered subcutaneously to all rats at the dose of 2.5 mg/kg.
Four hours after the intravenous injection of compound 48/80, the rats were decapitated and the stomachs were removed. Subsequently the stomachs ere inspected for distension and contents (blood, fluid, food) and thoroughly rinsed. The macroscopic lesions were scored from 0 to +++, 0 corresponding to complete absence of visible lesions and the highest score corresponding to reddish rough patches covering more than half the glandular area.

Test [3] deals with serotonin. Particulars: known serotonin-antagonists, rats treated with compound 48/80; cited from earlier work.

`Cn1c(=S)n(CCN2CCC(Nc3nc4ccccc4n3Cc3ccco3)CC2)c(=O)c2ccccc21` [Compound 129, 3-[2-[4-[[1-(2-furanylmethyl)-1H-benzimidazol-2-yl]amino]-1-piperidinyl]ethyl]-2,3-dihydro-1-methyl-2-thioxo-4(1H)-quinazolinone]: the ED50 in test [1] came to 0.08 mg/kg; with serotonin [2], 0.31 mg/kg.

For the compound `Fc1ccc(Cn2c(NC3CCN(CCn4c(=S)[nH]c5ccccc54)CC3)nc3ccccc32)cc1` [Compound 142, 1-[2-[4-[[1-[(4-fluorophenyl)methyl]-1H-benzimidazole-2-yl]amino]-1-piperidinyl]ethyl]-1,3-dihydro-2H-benzimidazole-2-thione], the ED50 came out at 0.16 mg/kg in test [1] and 0.63 mg/kg in the test with serotonin [2].

As for `Fc1ccc(Cn2c(NC3CCN(CCn4c(=S)[nH]c5cncnc54)CC3)nc3ccccc32)cc1` [Compound 143, 9-[2-[4-[[1-[(4-fluorophenyl)methyl]-1H-benzimidazol-2-yl]amino]-1-piperidinyl]ethyl]-7,9-dihydro-8H-purine-8-thione trihydrochloride.dihydrate], the ED50 in test [1] turned out to be 0.31 mg/kg; with serotonin [2], 0.63 mg/kg.

Regarding `Cc1nc2nc(NCCN3CCC(Nc4nc5ccccc5n4Cc4ccc(F)cc4)CC3)ccc2[nH]1` [Compound 146, N-[2-[4-[[1-[(4-fluorophenyl)methyl]-1H-benzimidazol-2-yl]amino]-1-piperidinyl]ethyl]-2-methyl-1H-imidazo[4,5-b]pyridin-5-amine], the ED50 in test [1] worked out at 0.04 mg/kg; in the test with serotonin [2], 0.08 mg/kg.

`CCOC(=O)N1CCc2nc(NCCN3CCC(Nc4nc5ccccc5n4Cc4ccc(F)cc4)CC3)sc2C1` [Compound 147, ethyl 2-[[2-[4-[[1-[4-fluorophenyl)methyl]-1H-benzimidazol-2-yl]amino]-1-piperidinyl]ethyl]amino]-4,5-dihydro-thiazolo[4,5-d]pyridine-6(7H)-carboxylate (E)-2-butenedioate (1:2) monohydrate]: the ED50 in test [1] stood at 0.31 mg/kg; with serotonin [2] it was 0.63 mg/kg.

For `Fc1ccc(Cn2c(NC3CCN(CCc4cn5ccsc5n4)CC3)nc3ccccc32)cc1` [Compound 149, 1-[(4-fluorophenyl)methyl]-N-[1-[2-(imidazo[2,1-b]thiazol-6-yl)ethyl]-4-piperidinyl]-1H-benzimidazol-2-amine], the ED50 (in test [1]; in the test with serotonin [2]) was 0.08 mg/kg in each case.

Turning to `Fc1ccc(Cn2c(NC3CCN(CCc4cn5ccccc5n4)CC3)nc3ccccc32)cc1` [Compound 150, 1-[(4-fluorophenyl)methyl]-N-[1-[2-(imidazo[1,2-a]pyridin-2-yl)ethyl]-4-piperidinyl]-1H-benzimidazol-2-amine], the ED50 in test [1] was determined as 0.08 mg/kg; in the test with serotonin [2], 0.63 mg/kg.

As for `Cl.Cl.Cl.Fc1ccc(Cn2c(NC3CCN(Cc4cn5c(n4)CNCC5)CC3)nc3ccccc32)cc1` [Compound 152, 1-[(4-fluorophenyl)methyl]-N-[1-[(5,6,7,8-tetrahydroimidazo[1,2-a]pyrazin-2-yl)methyl]-4-piperidinyl]-1H-benzimidazol-2-amine trihydrochloride], the figures for the ED50 (in test [1]; with serotonin [2]) were 0.08 mg/kg and 0.63 mg/kg, respectively.

In the case of `CN(C)CCCSc1ccccc1NC(=O)/C=C/c1ccccc1` [cinanserin], in the test on serotonin [3], the “prevention of cyanosis of ears and extremities, lesions in the glandular area of the stomach and abnormal gastric distension” value (“prevention” for short) is “prevent completely”.

On to `CN1CCC(=C2c3ccccc3C=Cc3ccccc32)CC1` [cyproheptadine], for which, in the test on serotonin [3], the “prevention” value is recorded as “prevent completely”.

On to `CN1C[C@H](CNC(=O)OCc2ccccc2)C[C@@H]2c3cccc4c3c(cn4C)C[C@H]21` [metergoline], for which, in the test on serotonin [3], the “prevention” value is “prevent completely”.

Consider `CC[C@@H](CO)NC(=O)[C@@H]1C=C2c3cccc4c3c(cn4C)C[C@H]2N(C)C1` [methysergide], for which the “prevention” value in the test on serotonin [3] is “prevent completely”.

In the case of `CN1CCN2c3ccccc3Cc3ccccc3C2C1` (stereo not drawn) [mianserin], in the test on serotonin [3], the “prevention” value is “prevent completely”.

For the compound `NC(=O)C1(N2CCCCC2)CCN(CCCC(=O)c2ccc(F)cc2)CC1` [pipamperone], in the test on serotonin [3], the “prevention” value was “prevent completely”.

`CN1CCC(=C2c3ccccc3CCc3sccc32)CC1` [pizotifen]: in the test with serotonin [3], the “prevention” value is “prevent completely”.

With `O=C(CCCN1CCC2(CC1)C(=O)NCN2c1ccccc1)c1ccc(F)cc1` [spiperone], the “prevention” value in the test with serotonin [3] is “prevent completely”.
